# ± gives the expanded uncertainty stated by the source.
# Experiment: osmotic coefficient (dimensionless); mn = molality of the nth substance listed, in mol/kg
# Details: 298.15 K, 100 kPa, Liquid, isopiestic method
Compound,osmotic coefficient (m1 = 1.004),osmotic coefficient (m1 = 2.01),osmotic coefficient (m1 = 0.9956),osmotic coefficient (m1 = 2.002)
[Na+].[OH-] [sodium hydroxide] + O,0.9589 ± 0.0089,1.032 ± 0.0089,–,–
[Cl-].[K+] [potassium chloride] + O,–,–,0.901 ± 0.011,0.916 ± 0.011
